The values below come from patent publication US20110263564A1, “PYRIDINE, BICYCLIC PYRIDINE AND RELATED ANALOGS AS SIRTUIN MODULATORS” (Sirtris Pharmaceuticals, Inc., priority 2008, published 2011).

A value given as a limit tells only on which side of the number the result lay.

For the assay, the target named is T1, SIRT1 (Homo sapiens, UniProt Q96EB6).
T1 sequence (Q96EB6 1-747): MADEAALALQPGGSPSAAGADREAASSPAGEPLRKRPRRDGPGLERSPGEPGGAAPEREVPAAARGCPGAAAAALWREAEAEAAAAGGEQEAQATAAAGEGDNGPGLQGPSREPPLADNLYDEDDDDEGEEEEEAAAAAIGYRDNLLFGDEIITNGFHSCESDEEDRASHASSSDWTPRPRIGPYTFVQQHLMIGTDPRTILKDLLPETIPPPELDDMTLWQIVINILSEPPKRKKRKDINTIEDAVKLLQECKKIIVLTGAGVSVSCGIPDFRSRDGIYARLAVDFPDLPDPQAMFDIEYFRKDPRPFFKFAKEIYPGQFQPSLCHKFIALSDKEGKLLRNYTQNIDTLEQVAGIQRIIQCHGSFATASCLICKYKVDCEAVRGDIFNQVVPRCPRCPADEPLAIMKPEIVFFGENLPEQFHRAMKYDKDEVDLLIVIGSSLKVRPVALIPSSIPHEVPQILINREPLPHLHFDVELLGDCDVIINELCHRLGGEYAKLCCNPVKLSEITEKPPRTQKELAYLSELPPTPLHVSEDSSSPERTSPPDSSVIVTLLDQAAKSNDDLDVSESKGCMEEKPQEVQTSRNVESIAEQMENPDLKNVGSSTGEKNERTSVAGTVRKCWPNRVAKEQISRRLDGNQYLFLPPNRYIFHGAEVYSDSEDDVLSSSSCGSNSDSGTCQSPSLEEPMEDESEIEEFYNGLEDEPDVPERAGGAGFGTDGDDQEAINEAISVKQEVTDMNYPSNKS
Briefly: Mass spectrometry based assay of SIRT1 activity (deacetylation of a p53-based acetylated peptide). Format: biochemical. Conditions: 10 nM SIRT1, 0.5 μM peptide substrate, 120 μM βNAD+, 25 minutes at 25° C.; for Emax: read-out: % FOLD ACT. (percent maximum fold activation). The source says: A mass spectrometry based assay was used to identify modulators of SIRT1 activity. The mass spectrometry based assay utilizes a peptide having 20 amino acid residues as follows: Ac-EE-K(biotin)-GQSTSSHSK(Ac)NleSTEG-K(5TMR)-EE-NH2 (SEQ ID NO: 1) wherein K(Ac) is an acetylated lysine residue and Nle is a norleucine. The peptide is labeled with the fluorophore 5TMR (excitation 540 nm/emission 580 nm) at the C-terminus. The sequence of the peptide substrate is based on p53 with several modifications. In addition, the methionine residue naturally present in the sequence was replaced with the norleucine because the methionine may be susceptible to oxidation during synthesis and purification.
The mass spectrometry assay is conducted as follows: 0.5 μM peptide substrate and 120 μM βNAD^+ is incubated with 10 nM SIRT1 for 25 minutes at 25° C. in a reaction buffer (50 mM Tris-acetate pH 8, 137 mM NaCl, 2.7 mM KCl, 1 mM MgCl2, 5 mM DTT, 0.05% BSA). Test compounds may be added to the reaction as described above. […] After the 25 minute incubation with SIRT1, 10 μL of 10% formic acid is added to stop the reaction. Reactions are sealed and frozen for later mass spec analysis. Determination of the mass of the substrate peptide allows for precise determination of the degree of acetylation (i.e. starting material) as compared to deacetylated peptide (product).
A control for inhibition of sirtuin activity is conducted by adding 1 μL of 500 mM nicotinamide as a negative control at the start of the reaction (e.g., permits determination of maximum sirtuin inhibition). A control for activation of sirtuin activity is conducted using 10 nM of sirtuin protein, with 1 μL of DMSO in place of compound, to determine the amount of deacetylation of the substrate at a given timepoint within the linear range of the assay. This timepoint is the same as that used for test compounds and, within the linear range, the endpoint represents a change in velocity.
For the above assay, SIRT1 protein was expressed and purified as follows. […] The protein was expressed by induction with 1 mM IPTG as an N-terminal His-tag fusion protein at 18° C. overnight and harvested at 30,000×g. Cells were lysed with lysozyme in lysis buffer (50 mM Tris-HCl, 2 mM Tris[2-carboxyethyl]phosphine (TCEP), 10 μM ZnCl2, 200 mM NaCl) and further treated with sonication for 10 min for complete lysis. The protein was purified over a Ni-NTA column (Amersham) and fractions containing pure protein were pooled, concentrated and run over a sizing column (Sephadex S200 26/60 global). The peak containing soluble protein was collected and run on an Ion-exchange column (MonoQ). Gradient elution (200 mM-500 mM NaCl) yielded pure protein. This protein was concentrated and dialyzed against dialysis buffer (20 mM Tris-HCl, 2 mM TCEP) overnight. The protein was aliquoted and frozen at −80° C. until further use.
Sirtuin modulating compounds that activated SIRT1 were identified using the assay described above and are shown below in Table 1 for compounds of Formula (III)). The EC1.5 values represent the concentration of test compounds that result in 150% activation of SIRT1. The EC1.5 values for the activating compounds in Table 1 are represented by A (EC1.5<10.0 μM), B (EC1.5 10-25 μM), C (EC1.5>25 μM). The percent maximum fold activation is represented by A (Fold activation>200%) or B (Fold Activation<200%); “NT” means not tested; “ND” mean not determinable.

On to `O=C(NC1CCCc2ccc(-c3ccccc3C(F)(F)F)nc21)c1cnccn1` (stereo not shown) [Compound 253], for which the “EC1.5 (concentration of test compound that results in 150% activation of SIRT1)” value was “C (EC1.5>25 μM)”.
Take `O=C(Nc1cccnc1)C1CCCc2ccc(-c3cccc(C(F)(F)F)c3)nc21` (stereo not shown) [Compound 285]: the “EC1.5 (concentration of test compound that results in 150% activation of SIRT1)” value was “C (EC1.5>25 μM)”.
Regarding `O=C(Nc1ccnc(N2CCCC2)c1)C1CCCc2ccc(-c3cccc(C(F)(F)F)c3F)nc21` (stereo not shown) [Compound 273], the “EC1.5 (concentration of test compound that results in 150% activation of SIRT1)” value is listed as “C (EC1.5>25 μM)”.
On to `O=C(Nc1ccncc1)C1CCCc2ccc(-c3cccc(C(F)(F)F)c3)nc21` (stereo not shown) [Compound 286], for which the “EC1.5 (concentration of test compound that results in 150% activation of SIRT1)” value is recorded as “C (EC1.5>25 μM)”.
For `O=C(NC1CCOc2ccc(-c3cccc(C(F)(F)F)c3)nc21)c1cccc(N2CCOCC2)n1` (stereo not shown) [Compound 222, 6-morpholino-N-(6-(3-(trifluoromethyl)phenyl)-3,4-dihydro-2H-pyrano[3,2-b]pyridin-4-yl)picolinamide], the “EC1.5 (concentration of test compound that results in 150% activation of SIRT1)” value was “A (EC1.5<10.0 μM)” and the Emax is greater than 200%.
On to `Cc1cc(NC(=O)C2CCCc3ccc(-c4cccc(C(F)(F)F)c4)nc32)no1` (stereo not shown) [Compound 288], for which the “EC1.5 (concentration of test compound that results in 150% activation of SIRT1)” value is “C (EC1.5>25 μM)”.
Regarding `O=C(NC1CCCc2ccc(-c3ccc(F)c(C(F)(F)F)c3)nc21)c1cnccn1` (stereo not shown) [Compound 254], the “EC1.5 (concentration of test compound that results in 150% activation of SIRT1)” value is “A (EC1.5<10.0 μM)” and the Emax is less than 200%.
With `O=C(NC1CCCc2ccc(-c3cc(C(F)(F)F)ccc3F)nc21)c1cnccn1` (stereo not shown) [Compound 251], the “EC1.5 (concentration of test compound that results in 150% activation of SIRT1)” value is “A (EC1.5<10.0 μM)” and the Emax is greater than 200%.
As for `CC(NC(=O)c1cnccn1)c1cccc(-c2cccnc2)n1` (stereo not shown) [Compound 213], the “EC1.5 (concentration of test compound that results in 150% activation of SIRT1)” value is recorded as “C (EC1.5>25 μM)”.
Regarding `O=C(NC1CCCc2ccc(-c3cccc(C(F)(F)F)c3)nc21)c1cccnc1OCC(O)CO` (stereo not shown) [Compound 243], the “EC1.5 (concentration of test compound that results in 150% activation of SIRT1)” value is recorded as “C (EC1.5>25 μM)”.
